From the supplement of paper PMC10307832

What was measured:
Assay in all cases: relative viability (nuclei count vs DMSO), 5 days (fraction); higher = more cells survive
Fedratinib + Pemetrexed = compound: Cc1cnc(Nc2ccc(OCCN3CCCC3)cc2)nc1Nc1cccc(S(=O)(=O)NC(C)(C)C)c1 [Fedratinib] + Nc1nc2[nH]cc(CCc3ccc(C(=O)N[C@@H](CCC(=O)O)C(=O)O)cc3)c2c(=O)[nH]1 [Pemetrexed] (partner 0.2 µM)
In short: (§1)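 After 5 days of treatment, lung cancer cells in 1536-well plates were fixed and stained in a single step (final 0.05% Triton X-100, 1% formaldehyde, 1 ug/ml Hoechst) and their nuclei counted on 4× images. Treatment had been applied by pin tool the day after seeding as one drug alone or as a fixed anchor-drug dose with five library-drug doses (not always all listed) in √10 steps. Relative viability is the nuclei count of treated wells divided by that of vehicle wells, and values are medians of duplicate plates.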

GW-2580 + Phenformin = compound: COC1=CC=C(C=C1)COC2=C(C=C(C=C2)CC3=CN=C(N=C3N)N)OC [GW-2580] + N=C(N)NC(=N)NCCc1ccccc1 [Phenformin] (partner 250 µM)
In short: as §1

GW-2580 + OSI-027 = compound: COC1=CC=C(C=C1)COC2=C(C=C(C=C2)CC3=CN=C(N=C3N)N)OC [GW-2580] + COc1cccc2cc(-c3nc([C@H]4CC[C@H](C(=O)O)CC4)n4ncnc(N)c34)[nH]c12 [OSI-027] (partner 0.5 µM)
In short: as §1

GW-2580 + Tozasertib = compound: COC1=CC=C(C=C1)COC2=C(C=C(C=C2)CC3=CN=C(N=C3N)N)OC [GW-2580] + Cc1cc(Nc2cc(N3CCN(C)CC3)nc(Sc3ccc(NC(=O)C4CC4)cc3)n2)n[nH]1 [Tozasertib] (partner 0.1 µM)
In short: as §1

GW-2580 + Linsitinib = compound: COC1=CC=C(C=C1)COC2=C(C=C(C=C2)CC3=CN=C(N=C3N)N)OC [GW-2580] + C[C@]1(O)C[C@@H](c2nc(-c3ccc4ccc(-c5ccccc5)nc4c3)c3c(N)nccn32)C1 [Linsitinib] (partner 1 µM)
In short: as §1

Cell Line | relative viability (Fedratinib + Pemetrexed; first compound 0.1 µM) | relative viability (Fedratinib + Pemetrexed; first compound 0.3162 µM) | relative viability (Fedratinib + Pemetrexed; first compound 1 µM) | relative viability (GW-2580 + Phenformin; first compound 0.08 µM) | relative viability (GW-2580 + Phenformin; first compound 0.8 µM) | relative viability (GW-2580 + Phenformin; first compound 2.53 µM) | relative viability (GW-2580 + Phenformin; first compound 8 µM) | relative viability (GW-2580 + OSI-027; first compound 0.08 µM) | relative viability (GW-2580 + OSI-027; first compound 0.8 µM) | relative viability (GW-2580 + OSI-027; first compound 2.53 µM) | relative viability (GW-2580 + OSI-027; first compound 8 µM) | relative viability (GW-2580 + Tozasertib; first compound 0.08 µM) | relative viability (GW-2580 + Tozasertib; first compound 0.8 µM) | relative viability (GW-2580 + Tozasertib; first compound 2.53 µM) | relative viability (GW-2580 + Tozasertib; first compound 8 µM) | relative viability (GW-2580 + Linsitinib; first compound 0.08 µM) | relative viability (GW-2580 + Linsitinib; first compound 0.8 µM) | relative viability (GW-2580 + Linsitinib; first compound 2.53 µM) | relative viability (GW-2580 + Linsitinib; first compound 8 µM)
SW 900 | 0.466 | 0.525 | 0.444 | 0.856 | 0.632 | 0.472 | 0.633 | 0.69 | 0.693 | 0.569 | 0.75 | 0.572 | 0.559 | 0.6 | 0.559 |  |  |  | 
A549 |  |  |  | 0.19 | 0.193 | 0.105 | 0.0849 |  |  |  |  |  |  |  |  | 0.678 | 0.701 | 0.501 | 0.602
A-427 | 0.97 | 0.848 | 0.939 | 0.407 | 0.258 | 0.303 | 0.269 | 0.453 | 0.371 | 0.518 | 0.435 | 0.198 | 0.208 | 0.19 | 0.172 | 1.18 | 1.16 | 1.01 | 1.08
NCI-H1792 | 0.784 | 0.67 | 0.597 | 0.4 | 0.226 | 0.146 | 0.313 | 0.763 | 1.14 |  | 0.883 |  |  |  |  | 0.684 | 0.569 | 0.263 | 0.592
LCLC-97TM1 | 0.204 | 0.151 | 0.169 | 0.443 | 0.469 | 0.438 | 0.454 | 0.556 | 0.614 | 0.624 | 0.426 | 0.289 | 0.161 | 0.154 | 0.261 | 0.207 |  | 0.164 | 0.177
